What was measured:
DPPH scavenging assay = assay: DPPH scavenging assay
Description: Test reagents, natural extracts and Vitamin C (ascorbic acid) were dissolved in methanol to make a stock solution 10×. Vitamin C was used as the positive control. 120 μM DPPH solution was prepared. Taken 20 μL of stock reagents, natural extracts and Vitamin C on a 96-well microplate, and methanol was added to make up to the total volume of 100 μL. Control was 100 μL methanol. Each sample was mixed with 100 μL DPPH solution and incubated in the dark for 40 minutes. DPPH level of each well was evaluated by detecting the optical density of each well at 517 nm and the results were shown in Table 5.

K-562 cells = assay: Apoptosis detection test (TUNEL); type: cell-based, human; settings: 30 μM, 48 hours
Description: TUNEL test was used to detect any DNA fragmentation to determine if cell enters apoptosis process.
A total of 10 mL cell solution at the concentration of 1×10^6K-562 cells per mL was cultured with 10 cm cell culture dishes in an incubator supplied with 5% CO2 at 37° C. for 30 minutes so that cells could adapt to the environment. Tellimagrandin II solutions of different concentrations were added by order so that the final concentrations are 0, 10, 20, 30, 40 and 50 μM respectively. The solution was placed in incubator with 5% CO2 at 37° C. for 48 hours before being centrifuged at 3,500 rpm at 4° C. for 5 minutes. After removing the supernatant, the cells were rinsed by PBS once. A total of 1 mL 1% Trioxane (diluted from 10% Trioxane solution with PBS) was added and the solution was left to react at room temperature for 30 minutes to one hour. Then, the solution was centrifuged at 3,500 rpm at 4° C. for 5 minutes. After removing the supernatant, 70% ethanol was added and the solution was placed at −20° C. for 16-18 hours for cell fixation.
After cell fixation, the solution was centrifuged at 400 rpm at 4° C. for 10 minutes before removing the supernatant. […] Finally, 1 mL PBS was used to resuspend the cells before BD FACS can was used to detect the fluorescent signal and the quantitative results are in FIG. 15. […]

[1] = tested on: human erythromyeloblastoid leukemia K-562 cell; assay: Cell viability WST-1 assay; type: cell-based
Description: Quantitative cell viability assessed using WST-1 assay. WST-1 is a reagent which produces a highly water soluble formazan upon metabolically active cells, allowing a direct colorimetric measurement of cell viability.
The K-562 cells were plated in a 96-well culture plate at a seeding density of 6,000 cells/well (100 μL) and incubated at 37° C. with 5% CO2 for 16˜18 hours. Cells were treated with 20 μL Tellimagrandin II to make the final concentrations of 0, 20, 40, 60 and 80 μM, and incubated at 37° C. with 5% CO2 for 24 and 48 hours. Cells without Tellimagrandin II treatment used as a control. Added 12 μL of WST-1 reagent (10:1) to each well of the plate and mixed well, then incubated at 37° C. in a 5% CO2 incubator for 2 hours. After incubation, the absorbance at 450 nm (test wavelength) and 630 nm (reference wavelength) were measured. Data was calculated by subtracting the 630 nm background absorbance from the 450 nm measurement.

[2] = tested on: LPS-induced NO in RAW264.7 cells; assay: NO production analysis (Griess reagent); type: cell-based, mouse; settings: before or after LPS, 25 and 50 μM statistically significant
Description: Murine macrophage cells were plated in each well on a 12-well plate at a density of about 4×10^5 RAW264.7 cells/mL. After overnight incubation, cells were serum starved in DMEM medium containing 2% Fetal Bovine Serum (FBS) for 3 hours. […] Endogenous NO production, induced by LPS. Cells were treated with Tellimagrandin II at various concentrations (10, 25 and 50 μM) before and after being treated with LPS. For NO production analysis, culture supernatants were brought to 96-well plate and mixed with Griess reagent. Plates were incubated and then the absorbance was measured at 520 nm. Sodium nitrite (NaNO2) solution (0 M˜0.1 M, 8 points) prepared in DMEM was used to generate a standard curve. The nitrite concentrations of samples were determined by interpolation from the standard curve. […] FIG. 10 is framed by a an x-axis labeled the relative order in LPS or Tellimagrandin II treatment and concentrations, and y-axis labeled NO concentration. The control (LPS only) and test groups were compared using a t-test, *p<0.05 (significant) and #p<0.01 (highly significant).

O=C(OC1O[C@@H]2COC(=O)c3cc(O)c(O)c(O)c3-c3c(cc(O)c(O)c3O)C(=O)O[C@H]2[C@H](OC(=O)c2cc(O)c(O)c(O)c2)[C@H]1OC(=O)c1cc(O)c(O)c(O)c1)c1cc(O)c(O)c(O)c1 (some centres unmarked) [Tellimagrandin II]
DPPH free-radical scavenging activity (DPPH scavenging assay; 20 μg/mL, +FeCl2 (50 μM)): 56.61 ± 4.05%
DPPH free-radical scavenging activity (DPPH scavenging assay; 20 μg/mL, −FeCl2): 80.52 ± 0.4%
DPPH free-radical scavenging activity (DPPH scavenging assay; 40 μg/mL, +FeCl2 (50 μM)): 57.43 ± 2.49%
DPPH free-radical scavenging activity (DPPH scavenging assay; 40 μg/mL, −FeCl2): 79.47 ± 0.2%
DNA fragmentation, TUNEL fluorescent signal (K-562 cells): fluorescent signals were detected
IC50 ([1]; K562, 24 hr): 57 µM
IC50 ([1]; K562, 48 hr): 48.1 µM
production of LPS-induced NO [2]: decreased the production of LPS-induced NO

Reference: patent US8975234B2, “Anti-bacterial infection, inflammation, and leukemia composition and use thereof” (priority 2011, dated 2015)
